Test results from patent US20100324017A1, “ACYLGUANIDINE DERIVATIVE” (priority 2007, published 2010).

Key:
[1] = tested on: scopolamine-induced spontaneous alternation behavior disorder; assay: Scopolamine-induced spontaneous alternation behavior disorder in mice (Y-maze); format: in vivo; settings: mouse, scopolamine 0.5 mg/kg i.p.
Experimental: An Improvement Effect for Scopolamine-Induced or MK-801-Induced Spontaneous Alternation Behavior in Mice
An improvement effect of the compound (I) for cognitive impairment was evaluated by the above-described well-known test method as a model of a short-term learning disorder.
Species: Male ddY mice/number of animals (number of animals per group): 6 to 10 animals per group
A mouse was introduced into the laboratory 1 hour before starting the test. The mouse was placed at one end of an arm in a Y-maze having equal lengths of arms in three directions, and was able freely explored for 8 minutes with the number of the entries into the arms were counted. Furthermore, a spontaneous alternation behavior was defined as consecutive entries into each of the three arms, and an alternation rate was defined as the percentage of the number of time of this behavior relative to the total number of the entries, and calculated by the following equation.
Alternation rate (%)=(number of spontaneous alternation behaviors/total number of entries−2)×100.
The compound to be tested was orally administered 50 minutes before the initiation of the test, and 30 minutes later, 0.5 mg/kg of scopolamine or 0.15 mg/kg of MK-801 (in the normal group, physiological saline) was intraperitoneally administered. Furthermore, for the normal group (the group administered with physiological saline) and the control group (the group administered with 0.5 mg/kg scopolamine or 0.15 mg/kg MK-801), a solvent (vehicle) was orally administered when the compound to be tested was administered. For the normal group, physiological saline was intraperitoneally administered when scopolamine was administered.
The alternation rate (%) is expressed as an average value in each group (mean±SE). In regard to the alternation rate (%), in the case where a significant difference between the normal group and the control group (Student's T test) was found, it was considered that there was an establishment of learning disorder by the administration of scopolamine or MK-801. By carrying out the Dunnett evaluation for the group administered with the compound to be tested relative to the control group, the presence or absence of the learning disorder action of the compound to be tested was determined. In each evaluation, it was considered that there was a tendency at p<0.10, and there was a significant difference at p<0.05.

[2] = tested on: MK-801-induced overactivity; assay: MK-801-induced overactivity in mice, kinetic momentum by infrared sensor; format: in vivo; settings: mouse, oral, MK-801 0.3 mg/kg i.p.
Experimental: (§1) Evaluation of Various Drugs Relative to a Drug for Increasing the Kinetic Momentum of Mice (Methane Phetamine, MK-801) (Method for Measuring a Kinetic Momentum by Discharge of an Infrared Ray)
(§2) The effect of improving the positive symptoms and the negative symptoms of schizophrenia by the compound (I) was evaluated by measuring the kinetic momentum that had been […] with administration of the compound in a model causing the symptoms by methane phetamine (which is hereinafter simply referred to as MAP) and MK-801.
(§3) Species: Male ICR mouse/number of animals (number of animals per group): 8 to 12 animals per group
(§4) The animal was left in a laboratory for 1 hour or longer to be acclimated to the environment, and the animal was taken from the feeding cage, orally administered with a compound to be tested, and then returned to the feeding cage. After 30 minutes, it was put into a cage for measurement, and the kinetic momentum of just the compound to be tested was measured. Further, after 30 minutes, the animal was taken out, and intraperitoneally administered with a drug for increasing kinetic momentum (MAP; 1 mg/kg or MK-801; 0.3 mg/kg, all dissolved in physiological saline), and its kinetic momentum was measured for a certain time (60 minutes) using a device for measuring the kinetic momentum by means of an infrared ray sensor (CompACT AMS, Muromachi Kikai Co., Ltd.). Also, the test was carried out under non-fasting.
(§5) The 60 minutes of measurements was classified into three groups: a first half 30 minutes, a second half 30 minutes, and a total 60 minutes. For a normal mouse (a mouse administered with physiological saline) and a mouse administered with the drug for increasing kinetic momentum, a Student's T test was used for evaluation in each interval. For the group administered with the compound to be tested, a solvent (vehicle) group and a Dunnett's T test were carried out and evaluated. For the evaluation, in case where there was a significant (P<0.05) difference for the total 60 minutes, it was considered to be effective.

[3] = tested on: MAP-induced overactivity; assay: MAP (methane phetamine)-induced overactivity in mice, kinetic momentum by infrared sensor; format: in vivo; settings: mouse, oral, dose 0.01 mg/kg; MAP 1 mg/kg i.p.; total 60 minutes, P<0.05
Experimental: as §1, §2, §3, §4, §5

[4] = molecular target: T1, human 5-HT5A receptor (Homo sapiens, UniProt P47898); assay: Test of human 5-HT5A receptor binding inhibition ([3H]5-CT, HEK293 cell membrane); settings: [3H]5-CT binding, membrane of HEK293 cell expressing human 5-HT5A receptor
T1 construct: expressed in transfected cells; membrane preparation
Experimental: An ORF of a human 5-HT5A receptor (Genbank AF498985) was cloned from a human hippocampal cDNA library, and then inserted into a pCR2.1 vector (Invitrogen), and Escherichia coli having the plasmid was mass cultured. Next, the human 5-HT5A receptor full-length cDNA sequence was analyzed, recombined into a pCDNA3.1 vector (Invitrogen) as an expression vector, and mass cultured. A human embryonic kidney-induced cell HEK293 cell (ATCC) was seeded, and the resulting expression plasmid (1 μg) above was added thereto together with LIPOFECTAMINE 2000 (Invitrogen; 2 μl), a gene was introduced into the HEK293 cell, and then Geneticin (G418 sulfate 500 μg/ml; Kanto Chemical Co., Inc.) was used as a drug-resistant marker to screen the expressing cell. Thus prepared gene-expressing recombinant cell was cultured in a D-MEM, 10% FCS, 1% Pc./Sm., 500 μg/ml G418 culture medium for 3 days. This experimental operation was conducted in accordance with a gene operation experiment manual of a known method (Sambrook, J. et al, Molecular Cloning-A Laboratory Manual“, Cold Spring Harabor Laboratory, NY, 1989), etc., an instruction appended in a reagent or the like.
(1) Preparation of a Membrane from an HEK293 Cell Forcibly Expressing a Human 5-HT5A Receptor
An HEK293 cell forcibly expressing a human 5-HT5A receptor was cultured in an F500 plate, and scraped for collection using a scraper. After centrifugation, the precipitates were collected and an incubation buffer (50 mM Tris (HCl) PH 7.4, 10 mM Mg504, 0.5 mM EDTA) was added thereto. After homogenization, it was further centrifuged, an incubation buffer was added to the precipitate, and the mixture was well suspended. These operations were repeatedly conducted, the protein concentration was then measured, and the preparation of a membrane was completed.
(2) Experiment on Human 5-HT5A Receptor Binding Inhibition
The compound to be tested (0.3 to 300 nM) and a 100 μM 5-CT solution in DMSO were added to a 96-well plate at 2 μl/well. The number of the wells to be measured under the same condition in one experiment was set at 2, and an average value thereof was used. It was suspended in an incubation buffer, and a HEK293 cell membrane forcibly expressing a human 5-HT5A receptor that had been prepared at 200 μg/ml was added thereto at 100 μl/well. The mixture was incubated at room temperature for 15 minutes, and a [^3H]5-CT solution (2 nM [^3H]5-CT, an incubation buffer) was then added thereto at 100 μl/well.
Separate from this, 100 μl of the solution was dispersed to a liquid scintillation vial, 2 ml of Aquasol II (registered trademark) was added thereto, followed by stirring, and the radioactivity was then measured with a liquid scintillation counter. The solution was incubated at 37° C. for 60 minutes. The reaction liquid was sucked to a 96-well GF/C filter plate that had been preliminarily treated with 0.2% polyethyleneimine, and washed six times with an ice-cooled 50 mM Tris (pH 7.5) buffer. The GF/C filter plate was dried.
MicroscintTMPS (registered trademark) was added thereto at 40 μl/well. The radioactivity remaining on the GF/C filter plate was measured in a top counter.
For the inhibitory activity for the binding of the [^3H]5-CT by the compound to be tested in each experiment, IC50 value was calculated by taking the radioactivity when only DMSO was added as 0% inhibition, and the radioactivity when 1 μM 5-CT was added as 100% inhibition. Apart from this, a Ki value was calculated from the Kd value of the [^3H]5-CT that had been determined by Scatchard analysis.
Ki=IC50 (1+Concentration of the ligands added/Kd (4.95 nM))

[5] = dose 0.01 mg/kg, total 60 minutes, P<0.05

T1 sequence (P47898 whole entry): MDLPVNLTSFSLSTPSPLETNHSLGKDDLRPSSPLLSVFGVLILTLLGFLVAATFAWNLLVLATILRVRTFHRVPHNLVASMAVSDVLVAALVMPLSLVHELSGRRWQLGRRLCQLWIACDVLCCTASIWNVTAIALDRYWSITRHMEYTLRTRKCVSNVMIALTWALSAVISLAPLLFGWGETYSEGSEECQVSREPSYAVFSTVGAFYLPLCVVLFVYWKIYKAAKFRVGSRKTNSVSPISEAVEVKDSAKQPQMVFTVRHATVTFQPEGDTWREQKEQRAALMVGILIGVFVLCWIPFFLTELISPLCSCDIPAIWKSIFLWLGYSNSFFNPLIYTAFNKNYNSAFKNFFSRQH

SMILES | inhibition of MK-801-induced overactivity [2, 5] | inhibition of MAP-induced overactivity [3] | Ki [4] | also measured
NC(N)=NC(=O)c1ccc2c3c(F)cccc3n(C3CCOCC3)c2c1 [Example 86] | significantly inhibited | significantly inhibited | 0.56 nM | inhibition of scopolamine-induced spontaneous alternation behavior disorder ([1]; oral, dose 0.0001 mg/kg): significantly inhibited
NC(N)=NC(=O)c1ccc2c3ccccc3n(Cc3cccs3)c2c1 [Example 135] | significantly inhibited | significantly inhibited | ≤ 50 nM | inhibition of scopolamine-induced spontaneous alternation behavior disorder ([1]; oral, dose 0.003 mg/kg): significantly inhibited
COc1cc2c(cc1OC)C(=O)C(CC1CCN(Cc3ccccc3)CC1)C2 (stereo not shown) [donepezil, reference compound] |  |  |  | inhibition of scopolamine-induced spontaneous alternation behavior disorder ([1]; dose 0.25 mg/kg): significantly inhibited
Cl.Cl.NC(N)=NC(=O)c1ccc2c3ccccc3n(C3CCNCC3)c2c1 [Example 6, N-(diaminomethylene)-9-piperidin-4-yl-9H-carbazole-2-carboxamide dihydrochloride] | significantly inhibited | significantly inhibited | ≤ 50 nM | inhibition of scopolamine-induced spontaneous alternation behavior disorder ([1]; oral, dose 0.003 mg/kg): significantly inhibited
CC(=O)n1c2ccccc2c2ccc(C(=O)N=C(N)N)cc21 [Example 26] |  |  | ≤ 50 nM | inhibition of scopolamine-induced spontaneous alternation behavior disorder ([1]; oral, dose 0.03 mg/kg): significantly inhibited
CC(C)n1c2cc(C(=O)N=C(N)N)ccc2c2c(Cl)cccc21 [Example 59] |  |  | ≤ 50 nM | inhibition of scopolamine-induced spontaneous alternation behavior disorder ([1]; oral, dose 0.03 mg/kg): significantly inhibited
NC(N)=NC(=O)c1ccc2c3ccccc3n(C3CCC3)c2c1 [Example 22] |  |  | ≤ 50 nM | inhibition of MK-801-induced overactivity ([2]; dose 0.1 mg/kg): significantly inhibited
NC(N)=NC(=O)c1cc(F)c2c3c(F)cccc3n(C3CCOCC3)c2c1 [Example 146] | significantly inhibited |  | ≤ 50 nM | 
Cc1cc(C(=O)N=C(N)N)cc2c1c1ccccc1n2C1CCOCC1 [Example 106] |  | significantly inhibited | 0.27 nM | inhibition of scopolamine-induced spontaneous alternation behavior disorder ([1]; oral, dose 0.0001 mg/kg): significantly inhibited; inhibition of MK-801-induced overactivity ([2]; dose 0.03 mg/kg): significantly inhibited
NC(N)=NC(=O)c1cc(Cl)c2c3ccccc3n(C3CCOCC3)c2c1 [Example 150] |  |  | ≤ 50 nM | inhibition of MK-801-induced overactivity ([2]; dose 0.1 mg/kg): significantly inhibited
Cc1cccc2c1c1ccc(C(=O)N=C(N)N)cc1n2C1CC=C(F)CC1 (stereo not shown) [Example 161] |  |  | ≤ 50 nM | inhibition of MK-801-induced overactivity ([2]; dose 0.1 mg/kg): significantly inhibited
COc1cccc(CN/C(N)=N/C(=O)c2ccc3c4ccccc4n(C4CCOCC4)c3c2)c1 [Example 194] |  |  | ≤ 50 nM | inhibition of MK-801-induced overactivity ([2]; dose 0.03 mg/kg): significantly inhibited
